Experimental findings from patent publication US7943606B2, “Compositions and methods to control abnormal cell growth” (CanCure Laboratories, LLC, priority 2005, dated 2011) are described below.

The test system of one data set is MXT tumor. The data set can be described thus: MXT mouse mammary tumor model: tumor volume and survival. The following applies: for Tumor volume, Day 7: start of treatment. In kind it is in vivo. The text has this:
Tumors were developed in first generation hybrid BDF1 (C57 B1 female×DBA/2 male) adult female mice kept at specified pathogen free (SPF) hygienic level. Suspensions of HL-60 human leukemia cells, or approximately 0.1 cm^3 volume of tumor tissue derived from HT-168 human melanoma, PC-3 human prostate adenocarcinoma, T47D human breast carcinoma, MXT mouse mammary cancer, or mouse B16 melanoma cells were implanted subcutaneously to develop the tumors. After 12-18 days when the tumor-bearing mice were first treated, the size of the tumors was in the 0.2-0.4 cm^3 range. All compounds used were dissolved in physiological (0.9%) saline (NaCl), and the agents, alone or in combinations, were applied subcutaneously or intraperitoneally in 50 μl volume. Tumor volume was determined by calipers in three dimensions; this technique is well known to one having ordinary skill in the art. Tumor volume was calculated according to the generally accepted formula: V=a^2×b×π/6, where “a” and “b” mean the shortest and longest diameter, respectively, of the measured tumor.
The mouse mammary MXT tumor was developed as described above. On day 7 after transplantation of tumor cells, the animals were either remained untreated (group 1) or were treated with 2 mg/kg of CisPt alone (Group 2), or 4 mg/kg of CisPt alone (Group 3), or 4.6 mg/kg of CCDTHT alone (Group 4), or 2 mg/kg of CisPt+4.6 mg/kg of CCDTHT (Group 5), or 4 mg/kg of CisPt+4.6 mg/kg of CCDTHT (Group 6). CCDTHT and CisPt were administered subcutaneously and intraperitoneally, respectively, once daily for 10 days, including a 2-day rest period after 5 days of treatment (i.e., the last treatment was on day 19). Each group consisted of 7 animals, and the mean values±std. dev. for tumor volumes and body weight are shown in TABLE 4 and TABLE 5, respectively. While in this tumor model CCDTHT alone reduced the tumor volume less effectively than in the human tumor models, it clearly added to the tumor volume-reducing effect of CisPt (TABLE 4). A dramatic reduction in tumor volume was particularly evident in Group 6 (4 mg/kg CisPt+4.6 mg/kg CCDTHT).
The mouse mammary MXT tumor model was developed and treated as described above. On day 7 the animals were either remained untreated (Group 1) or were treated with 3 mg/kg of CisPt (Group 2) or 3 mg/kg of CisPt+15 mg/kg of highly purified PALP (Group 3). CisPt and PALP were administered intraperitoneally and subcutaneously, respectively, seven times on every second day (i.e., treatments were terminated on day 21). Each group included 7 animals; the mean values±std. dev. for tumor volumes and body weight are shown in TABLE 6 and TABLE 7, respectively.
The mouse mammary MXT tumor model was developed and treated as described above. On day 7 the animals either remained untreated (Group 1) or were treated with 3 mg/kg CisPt (Group 2), 3 mg/kg CisPt+4.6 mg/kg of CCDTHT (Group 3), or 3 mg/kg CisPt+4.6 mg/kg of CCDTHT+15 mg/kg highly purified PALP (Group 4). CisPt was administered intraperitoneally 9-times once every second day; CCDTHT was administered for 15 days once daily; and PALP was administered 3 times every 3rd day. In each group 7 mice were included. The mean values±std. dev. for tumor volumes and body weights are shown in TABLE 9 and TABLE 10, respectively.

Data set [1] is described as follows: Body weight of animals in the MXT tumor model. The format is in vivo, mouse. The following applies: for Body weight, Day 7: start of treatment. As to the method:
The mouse mammary MXT tumor was developed as described above. […] CCDTHT and CisPt were administered subcutaneously and intraperitoneally, respectively, once daily for 10 days, including a 2-day rest period after 5 days of treatment (i.e., the last treatment was on day 19). Each group consisted of 7 animals, and the mean values±std. dev. for tumor volumes and body weight are shown in TABLE 4 and TABLE 5, respectively.
The mouse mammary MXT tumor model was developed and treated as described above. […] CisPt and PALP were administered intraperitoneally and subcutaneously, respectively, seven times on every second day (i.e., treatments were terminated on day 21). Each group included 7 animals; the mean values±std. dev. for tumor volumes and body weight are shown in TABLE 6 and TABLE 7, respectively.
The mouse mammary MXT tumor model was developed and treated as described above. […] In each group 7 mice were included. The mean values±std. dev. for tumor volumes and body weights are shown in TABLE 9 and TABLE 10, respectively.

In another data set the test system is cancer cells. The data set can be described thus: Induction of cancer cell death by quaternary nitrogen dyes compared with CCDTHT. The format is cell-based. The text has this:
Despite these observations, for the purpose of embodiments of the invention, the thioxanthene or thioxanthone moiety may be replaced with any other heterocyclic moiety to which it is feasible to attach at least one quaternary nitrogen group with three substituents that together are capable of inhibiting the transport of external choline into cells and thereby inhibit cell proliferation.

The mark [2] stands for this setting: Example 31, CisPt 2 mg/kg i.p. and/or CCDTHT 4.6 mg/kg s.c., once daily.
Setting [3] is: Example 31, CisPt 2 mg/kg i.p. and/or CCDTHT 4.6 mg/kg s.c.
The mark [4] stands for this setting: Example 31, CisPt 4 mg/kg i.p. without or with CCDTHT 4.6 mg/kg s.c., once daily.
The mark [5] stands for this setting: Example 31, CisPt 4 mg/kg i.p. without or with CCDTHT 4.6 mg/kg s.c.
The mark [6] stands for this setting: Example 32, CisPt 3 mg/kg i.p. without or with PALP 15 mg/kg s.c., every second day.
Setting [7] is: Example 32, CisPt 3 mg/kg i.p. without or with PALP 15 mg/kg s.c.
Where [8] appears, read: Example 34, CisPt 3 mg/kg i.p. every second day, CCDTHT 4.6 mg/kg once daily, PALP 15 mg/kg every 3rd day.
[9] abbreviates: Example 34, CisPt 3 mg/kg i.p., CCDTHT 4.6 mg/kg, PALP 15 mg/kg.

As to `N.N.[Cl][Pt][Cl]` [CisPt, Cisplatin], the survival with MXT tumor (Example 31, CisPt 2 mg/kg and/or CCDTHT 4.6 mg/kg (groups 2, 4, 5)) was 32.7 ± 6.2 days; in the data set on MXT tumor (Example 31, CisPt 4 mg/kg without or with CCDTHT 4.6 mg/kg (groups 3, 6)) it was 18.1 ± 0.7 days; in the data set with MXT tumor (Example 32, CisPt 3 mg/kg without or with PALP 15 mg/kg), 31.1 ± 6.2 days. Further, the “Tumor volume, Day 14” value is reported as 3.34 ± 1.04 cm^3 with MXT tumor (setting [2]) and 1.77 ± 0.40 cm^3 with MXT tumor (setting [4]). The results for the “Tumor volume, Day 18” value in the data set with MXT tumor (setting [2]) and in the data set with MXT tumor (setting [4]) were 5.37 ± 0.68 cm^3 and “all dead”, respectively. For the same compound, the “Tumor volume, Day 21” value was 6.23 ± 0.86 cm^3 with MXT tumor (setting [2]), “all dead” in the data set with MXT tumor (setting [4]), 5.86 ± 1.38 cm^3 with MXT tumor (setting [6]) and 6.64 ± 1.28 cm^3 in the data set with MXT tumor (setting [8]). Besides, the “Tumor volume, Day 7” value in the data set on MXT tumor (setting [3]) is on record as 0.46 ± 0.08 cm^3; in the data set on MXT tumor (setting [5]), 0.45 ± 0.10 cm^3; in the data set with MXT tumor (setting [7]), 0.38 ± 0.01 cm^3; with MXT tumor (setting [9]), 0.36 ± 0.12 cm^3. Further, the “Tumor volume, Day 11” value in the data set with MXT tumor (setting [6]) was determined as 1.45 ± 0.22 cm^3; in the data set with MXT tumor (setting [8]), 1.92 ± 0.67 cm^3. Also, the “Tumor volume, Day 16” value in the data set on MXT tumor (setting [6]) was 4.53 ± 1.00 cm^3. Further, the survival time with MXT tumor (Example 34, CisPt 3 mg/kg alone or with CCDTHT 4.6 mg/kg + PALP 15 mg/kg) is recorded as 34 days. In the data set on MXT tumor (setting [8]), the “Tumor volume, Day 15” value is given as 3.80 ± 1.30 cm^3. For the same compound, the entries for the “Body weight, Day 14” value in data set [1] (setting [2]) and in data set [1] (setting [4]) were 22.9 ± 0.87 g and 19.4 ± 1.05 g, respectively. Moreover, the “Body weight, Day 18” value in data set [1] (setting [2]) is on record as 22.3 ± 1.02 g; in data set [1] (setting [4]), “all dead”. Moreover, the “Body weight, Day 21” value in data set [1] (setting [2]) was 21.2 ± 1.31 g; in data set [1] (setting [4]) it was “all dead”; in data set [1] (setting [6]), 19.2 ± 0.66 g; in data set [1] (setting [8]) it was 20.6 ± 1.80 g. In addition, the “Body weight, Day 7” value is 22.4 ± 0.73 g in data set [1] (setting [3]), 22.5 ± 0.92 g in data set [1] (setting [5]), 22.7 ± 0.37 g in data set [1] (setting [7]) and 22.2 ± 1.10 g in data set [1] (setting [9]). For the same compound, the “Body weight, Day 11” value in data set [1] (setting [6]) amounted to 23.1 ± 0.52 g; in data set [1] (setting [8]) it was 23.10 ± 1.40 g. The “Body weight, Day 16” value in data set [1] (setting [6]) was determined as 20.9 ± 0.65 g. In data set [1] (setting [8]), the “Body weight, Day 15” value came out at 22.9 ± 1.00 g.

For the compound `CN(C)c1ccc2nc3c(C(=O)O)cc(=O)c(O)c-3oc2c1.Cl` [gallocyanine], in the data set on cancer cells, the “inducing cancer cell death, compared with CCDTHT” value is reported as “ineffective or less effective”.

For the compound `C[N+](C)=c1ccc2nc3c(ccc4ccccc43)oc-2c1.[Cl-].[Cl-].[Cl-].[Zn+2]` [meldola blue], the “inducing cancer cell death, compared with CCDTHT” value in the data set on cancer cells was “ineffective or less effective”.

Take `CN(C)c1ccc(C(=C2C=CC(=[N+](C)C)C=C2)c2ccc([N+](C)(C)C)cc2)cc1.[Cl-].[Cl-]` [methyl green]: the “inducing cancer cell death, compared with CCDTHT” value in the data set with cancer cells was “ineffective or less effective”.

Consider `CN(C)c1ccc2nc3ccc(=[N+](C)C)cc-3sc2c1` [methylene blue], for which the “inducing cancer cell death, compared with CCDTHT” value in the data set on cancer cells was “ineffective or less effective”.

`CN(C)c1ccc2nc3ccc(=[N+](C)C)c([N+](=O)[O-])c-3sc2c1.[Cl-]` [methylene green]: the “inducing cancer cell death, compared with CCDTHT” value in the data set on cancer cells is “ineffective or less effective”.

`CN(C)c1ccc2cc3ccc(=[N+](C)C)cc-3oc2c1.[Cl-]` [pyronin]: the “inducing cancer cell death, compared with CCDTHT” value with cancer cells is recorded as “ineffective or less effective”.

For the compound celestine blue, the “inducing cancer cell death, compared with CCDTHT” value in the data set on cancer cells was “ineffective or less effective”.
